{
  "source": "patent US6747036B2",
  "about": "“Methods of treating leukemia” (BioChem Pharma Inc., priority 1999, dated 2004)",
  "key": {"[1]": {"tested_on": "Human Leukemia (HL60) xenograft", "test": "β-L-OddC/doxorubicin combination study in a human leukemia (HL60) xenograft survival model", "assay_type": "in vivo, female SCID mice", "conditions": "start day 10", "protocol": "β-L-OddC/doxorubicin Combination Study in a Human Leukemia (HL60) Xenograft Model\nA study was conducted to evaluate the synergistic or additive therapeutic effect of β-L-OddC in combination with the currently known anticancer agent Doxorubicin. The model that was utilized is a survival model consisting of female SCID mice which are inoculated in the abdomen region (i.p.) with 15×10^6 HL60 cells in log phase growth. This corresponds to day 0 of the experiment. Administration of anti-cancer drug is started 10 days after tumor cell inoculation.\n10 animals were used per group for β-L-oddC alone, Doxorubicin alone and the combination of β-L-oddC with Doxorubicin. Each groups received the drugs alone or in combination intraperitoneal once daily for 5 consecutive days.\nAugmentation of survival time was calculated by substracting from the median survival time of group two to six, which corresponds to the day when the fifth mouse dies, the median survival time of control group 1 and multiplying by 100."}, "[2]": {"tested_on": "advanced leukemia", "test": "Evaluation of β-L-oddC in patients with advanced leukemia previously treated with Ara-C", "assay_type": "in vivo, human", "conditions": "twelve patients treated; 30 min daily infusion for 5 consecutive days; responders 2 each at 1.08 and 1.62 mg/m2; three AML, one CML", "protocol": "Evaluation of β-L-oddC in Patients with Advanced Leukemia.\nThe study involved treatment of patients with advanced leukemia that had been previously treated with Citarabine (Ara-C). […] Twelve patients were treated with an initial course at daily doses of 0.72 mg/m2 (4 patients), 1.08 mg/m^2 (5 patients), 1.62 mg/m^2 (3 patients) given as a daily infusion over 30 minutes for 5 consecutive days. Five patients were treated with second courses at daily doses of 1.08 mg/m^2 (3 patients), 1.62 mg/m^2 (2 patients) given over 5 consecutive days as above. 1 patient was treated with a 3rd 5 day course at the 2.43 mg/m^2 daily dose level. 4 patients (2 each at the 1.08 mg/m^2 and 1,62 mg/m^2 levels) have shown a transient decrease in peripheral blood and bone marrow blasts. Of these four patients, three had acute mylogenous leukemia and one had chronic mylogenous leukemia."}},
  "data": [
    {"molecule": "COc1cccc2c1C(=O)c1c(O)c3c(c(O)c1C2=O)C[C@@](O)(C(=O)CO)C[C@@H]3O[C@H]1C[C@H](N)[C@H](O)[C@H](C)O1", "note": "[Doxorubicin]", "values": [
      {"measurement": "Augmentation Survival Time", "setting": "[1]; Doxorubicin 0.2 mg/kg i.p. once daily for 5 days", "result": 25, "unit": "%"},
      {"measurement": "Augmentation Survival Time", "setting": "[1]; Doxorubicin 2 mg/kg i.p. once daily for 5 days", "result": 50, "unit": "%"}
    ]},
    {"molecule": "Nc1ccn([C@@H]2CO[C@H](CO)O2)c(=O)n1", "note": "[β-L-OddC, (−)-β-L-Dioxolane-Cytidine]", "values": [
      {"measurement": "Augmentation Survival Time", "setting": "[1]; β-L-OddC 1 mg/kg i.p. once daily for 5 days", "result": 55, "unit": "%"},
      {"measurement": "patients showing a transient decrease in peripheral blood and bone marrow blasts", "setting": "[2]", "result": 4, "unit": "patients"}
    ]}
  ]
}
